According to patent publication US6933309B2, “Halogenobenzyl aminopropionic acid derivatives” (Toaeiyo Ltd., priority 2002, dated 2005):
Like-named read-outs stand apart in the source and are kept apart here.

How the values were obtained:
[1] = tested on: male KKA^y mice (obesity/noninsulin-dependent diabetes mellitus model); assay: Blood glucose lowering effect and blood lipid (blood TG and blood FFA) lowering effect in mice; assay type: in vivo; settings: 1 mg/kg/day oral, once a day over seven days, plasma on the day following final administration, vs control group; for inhibition in vivo at 1 mg/kg/day: Mus musculus, po, 168 h
Procedure: Blood glucose Lowering Effect and Blood Lipid (Blood TG and Blood FFA) Lowering Effect in Mice
Each of the test compounds was suspended in a 0.5-%(w/v) sodium CMC solution, and the suspension was forcedly administered via oral route once a day over seven days to male KKA^y mice (obesity/noninsulin-dependent diabetes mellitus model, 6 to 7 weeks old, 3 to 5 animals per group) (1 mg/kg/day). During this 7-day period, feed and water were taken ad libitum. On the day following the final administration, blood was drawn from the tail vein without anesthesia and centrifuged, to thereby prepare plasma samples. Plasma glucose level, plasma TG level, and plasma FFA level of the samples were determined through the enzymatic method by use of an L-type Wako Glu2 (Wako Pure Chemical Industries), an L-type Wako TG-H (Wako Pure Chemical Industries), and an NEFA-HA Test Wako (Wako Pure Chemical Industries), respectively, by means of a full-automated clinical chemistry analyzer (CL-8000, Shimadzu Corporation). Percent reduction was determined from the obtained values by use of the following equations.

KKA^y mice = assay: Plasma adiponectin level in KKA^y mice after two weeks of oral administration; assay type: in vivo; settings: over two weeks, 0.1, 0.3, or 1 mg/kg/day
Procedure: Separately, the present compound (1) or a salt thereof was orally administered to KKA^y mice over two weeks (0.1, 0.3, or 1 mg/kg/day), and plasma adiponectin level of each mouse was determined.

[2] = read-out: Percent reduction of blood FFA level
[3] = read-out: Percent reduction of blood TG level
[4] = read-out: Percent reduction of blood glucose level

| SMILES | melting point | inhibition in vivo at 1 mg/kg/day [1, 2] | inhibition in vivo at 1 mg/kg/day [1, 3] | inhibition in vivo at 1 mg/kg/day [1, 4] | also measured |
| --- | --- | --- | --- | --- | --- |
| Cc1oc(-c2ccccc2)nc1CCOc1ccc(C[C@H](NCc2ccccc2)C(=O)O)cc1 [Comparative Compound 1, (S)-3-[4-[2-(5-Methyl-2-phenyl-1,3-oxazol-4-yl)ethoxy]phenyl]-2-(benzylamino)propionic Acid] | 206 to 209 °C | -2% | 17% | 12% | – |
| Cc1oc(-c2ccc(F)cc2)nc1CCOc1ccc(C[C@H](NCc2ccc(F)cc2)C(=O)O)cc1 [Compound 19, (S)-3-[4-[2-[2-(4-Fluorophenyl)-5-methyl-1,3-oxazol-4-yl]ethoxy]phenyl]-2-(4-fluorobenzylamino)propionic Acid] | 191 to 193 °C | – | – | – | – |
| Cc1ccc(-c2nc(CCOc3ccc(C[C@H](NCc4ccc(F)cc4)C(=O)O)cc3)c(C)o2)cc1 [Compound 20, (S)-3-[4-[2-[5-Methyl-2-(4-methylphenyl)-1,3-oxazol-4-yl]ethoxy]phenyl]-2-(4-fluorobenzylamino)propionic Acid] | 196 to 198 °C | 25% | 36% | 21% | – |
| Cc1oc(-c2ccc(C(F)(F)F)cc2)nc1CCOc1ccc(C[C@H](NCc2ccc(F)cc2)C(=O)O)cc1 [Compound 21, (S)-3-[4-[2-[5-Methyl-2-(4-trifluoromethylphenyl)-1,3-oxazol-4-yl]ethoxy]phenyl]-2-(4-fluorobenzylamino)propionic Acid] | 202 to 204 °C | – | – | – | – |
| Cc1sc(N2CCOCC2)nc1CCOc1ccc(C[C@H](NCc2ccc(F)cc2)C(=O)O)cc1 [Compound 23, (S)-3-[4-[2-[5-Methyl-2-(morpholin-4-yl)-1,3-thiazol-4-yl]ethoxy]phenyl]-2-(4-fluorobenzylamino)propionic Acid] | 192 to 194 °C | – | – | – | – |
| Cc1oc(-c2ccccc2)nc1CCOc1ccc(C[C@H](NCc2ccc(F)cc2F)C(=O)O)cc1 [Compound 25, (S)-3-[4-[2-(5-Methyl-2-phenyl-1,3-oxazol-4-yl)ethoxy]phenyl]-2-(2,4-difluorobenzylamino)propionic Acid] | 190 to 192 °C | – | – | – | – |
| Cc1oc(-c2ccccc2)nc1CCOc1ccc(C[C@H](NCc2ccc(F)c(F)c2)C(=O)O)cc1 [Compound 26, (S)-3-[4-[2-(5-Methyl-2-phenyl-1,3-oxazol-4-yl)ethoxy]phenyl]-2-(3,4-difluorobenzylamino)propionic Acid] | 202 to 204 °C | – | – | – | – |
| Cc1oc(-c2ccccc2)nc1CCOc1ccc(C[C@H](NCc2c(F)cccc2F)C(=O)O)cc1 [Compound 28, (S)-3-[4-[2-(5-Methyl-2-phenyl-1,3-oxazol-4-yl)ethoxy]phenyl]-2-(2,6-difluorobenzylamino)propionic Acid] | 165 to 167 °C | 54% | 65% | 50% | – |
| Cc1oc(-c2ccccc2)nc1CCOc1ccc(C[C@H](NCc2ccccc2Cl)C(=O)O)cc1 [Compound 32, (S)-3-[4-[2-(5-Methyl-2-phenyl-1,3-oxazol-4-yl)ethoxy]phenyl]-2-(2-chlorobenzylamino)propionic Acid] | 143 to 145 °C | 13% | 33% | 39% | – |
| Cc1oc(-c2ccccc2)nc1CCOc1ccc(C[C@H](NCc2ccc(Br)cc2)C(=O)O)cc1 [Compound 33, (S)-3-[4-[2-(5-Methyl-2-phenyl-1,3-oxazol-4-yl)ethoxy]phenyl]-2-(4-bromobenzylamino)propionic Acid] | 196 to 199 °C | – | – | – | – |
| Cc1oc(-c2ccccc2)nc1CCOc1ccc(C[C@H](NCc2ccc(F)cc2)C(=O)[O-])cc1.[Na+] [Compound 35, Sodium (S)-3-[4-[2-(5-methyl-2-phenyl-1,3-oxazol-4-yl)ethoxy]phenyl]-2-(4-fluorobenzylamino)propionate] | 179 to 181 °C | 33% | 47% | – | Percent reduction of blood glucose level [1]: 36% |
| CCOC(=O)[C@H](Cc1ccc(OCCc2nc(-c3ccccc3)oc2C)cc1)NCc1ccc(F)cc1.CS(=O)(=O)O [Compound 38, Ethyl(S)-3-[4-[2-(5-methyl-2-phenyl-1,3-oxazol-4-yl)ethoxy]phenyl]-2-(4-fluorobenzylamino)propionate methanesulfonate] | 144 °C | 16% | 33% | 25% | – |

Now from value to compound, other results behind:

| melting point | SMILES | inhibition in vivo at 1 mg/kg/day [1, 2] | inhibition in vivo at 1 mg/kg/day [1, 3] | inhibition in vivo at 1 mg/kg/day [1, 4] | also measured |
| --- | --- | --- | --- | --- | --- |
| 198 to 200 °C | Cc1oc(-c2ccccc2)nc1CCOc1ccc(C[C@H](NCc2ccc(F)cc2)C(=O)O)cc1.Cl | – | – | – | – |
| 184.5 to 186.5 °C | Cc1oc(-c2ccccc2)nc1CCOc1ccc(C[C@H](NCc2ccc(F)cc2)C(=O)O)cc1 [Compound 18, (S)-3-[4-[2-(5-Methyl-2-phenyl-1,3-oxazol-4-yl)ethoxy]phenyl]-2-(4-fluorobenzylamino)propionic Acid] | – | – | – | Percent reduction of blood FFA level [1]: 27%; Percent reduction of blood TG level [1]: 40%; Percent reduction of blood glucose level [1]: 15%; effect of increasing plasma adiponectin level (KKA^y mice): particularly excellent effect of increasing plasma adiponectin level |
| 192 to 195 °C | Cc1sc(-c2ccccc2)nc1CCOc1ccc(C[C@H](NCc2ccc(F)cc2)C(=O)O)cc1 [Compound 22, (S)-3-[4-[2-(5-Methyl-2-phenyl-1,3-thiazol-4-yl)ethoxy]phenyl]-2-(4-fluorobenzylamino)propionic Acid] | 36% | 53% | 33% | – |
| 191 to 193 °C | Cc1oc(-c2ccccc2)nc1CCOc1ccc(C[C@H](NCc2ccccc2F)C(=O)O)cc1 [Compound 24, (S)-3-[4-[2-(5-Methyl-2-phenyl-1,3-oxazol-4-yl)ethoxy]phenyl]-2-(2-fluorobenzylamino)propionic Acid] | – | – | – | – |
| 173 to 175 °C | Cc1oc(-c2ccccc2)nc1CCOc1ccc(C[C@H](NCc2cccc(F)c2F)C(=O)O)cc1 [Compound 27, (S)-3-[4-[2-(5-Methyl-2-phenyl-1,3-oxazol-4-yl)ethoxy]phenyl]-2-(2,3-difluorobenzylamino)propionic Acid] | 16% | 48% | 40% | – |
| 168 to 170 °C | Cc1oc(-c2ccccc2)nc1CCOc1ccc(C[C@H](NCc2c(F)cc(F)cc2F)C(=O)O)cc1 [Compound 29, (S)-3-[4-[2-(5-Methyl-2-phenyl-1,3-oxazol-4-yl)ethoxy]phenyl]-2-(2,4,6-trifluorobenzylamino)propionic Acid] | 58% | 74% | 43% | – |
| 197 to 199 °C | Cc1oc(-c2ccccc2)nc1CCOc1ccc(C[C@H](NCc2ccc(Cl)cc2)C(=O)O)cc1 [Compound 31, (S)-3-[4-[2-(5-Methyl-2-phenyl-1,3-oxazol-4-yl)ethoxy]phenyl]-2-(4-chlorobenzylamino)propionic Acid] | – | – | – | – |
| 142 to 145 °C | Cc1oc(-c2ccccc2)nc1CCOc1ccc(C[C@@H](C(=O)O)N(C)Cc2ccc(F)cc2)cc1 [Compound 34, (S)-3-[4-[2-(5-Methyl-2-phenyl-1,3-oxazol-4-yl)ethoxy]phenyl]-2-[N-(4-fluorobenzyl)-N-methylamino]propionic Acid] | – | – | – | – |
